According to the supplement of paper PMC11451515:

Legend:
Conditions in all cases: 48 h
SEM cells [1] = assay: AUC of viability dose-response curve (% viability x log10 dose units); higher = less sensitive
Outline: (§1)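 Seeding of medium-adapted leukemia cells was at 500 or 1000 cells/well in 1536-well plates, followed by 48 h at 37°C with library compounds in DMSO at 11 threefold doses from 47 μM to 0.79 nM. CellTiter-Glo One luminescence was normalised per plate to DMSO and cell-free wells and fitted as a four-parameter log-logistic function of log10 dose. Area under the curve was integrated by trapezoidal rule, with curves exceeding full viability scaled and curves failing quality control removed.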

NOMO1 [2] = assay: as above
Outline: as §1

P12-Ichikawa [3] = assay: as above
Outline: as §1

SEM cells [4] = assay: cell viability relative to DMSO control; higher = less cytotoxic
Outline: (§2)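 Before seeding, each leukemia line was adapted for at least four passages in each medium. NOMO1 or SEM cells (500 cells/well) and P12-Ichikawa cells (1000 cells/well) went into 1536-well plates at 5 μl, then received library compounds in DMSO by pin dosing across 11 threefold concentrations, 47 μM to 0.79 nM. Readout was CellTiter-Glo One luminescence after 48 h at 37°C, and viability is given as a per-plate percentage of DMSO wells, with cell-free wells as background.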

NOMO1 [5] = assay: as above
Outline: as §2

P12-Ichikawa [6] = assay: as above
Outline: as §2

OC(CN1CCN(c2cccc(Cl)c2)CC1)C(c1ccccc1)c1ccccc1 (stereo not given)
AUC of viability dose-response curve
Conditions	NOMO1 [2]	P12-Ichikawa [3]	SEM cells [1]
HPLM + 10% dialyzed FBS	265	238	319
RPMI 5 mM glucose + 10% FBS	324	318	252
RPMI 5 mM glucose + 10% dialyzed FBS	341	307	257

cell viability [%]
Conditions	NOMO1 [5]	P12-Ichikawa [6]	SEM cells [4]
HPLM + 10% dialyzed FBS, 0.000781 µM	–	109	99.1
HPLM + 10% dialyzed FBS, 0.00234 µM	–	114	97.9
HPLM + 10% dialyzed FBS, 0.00702 µM	–	119	102
HPLM + 10% dialyzed FBS, 0.0211 µM	–	111	101
HPLM + 10% dialyzed FBS, 0.0632 µM	–	120	104
HPLM + 10% dialyzed FBS, 0.19 µM	–	23.4	110
HPLM + 10% dialyzed FBS, 0.569 µM	–	17.3	92.1
HPLM + 10% dialyzed FBS, 1.71 µM	–	4.64	10.6
HPLM + 10% dialyzed FBS, 5.12 µM	–	4.77	8.66
HPLM + 10% dialyzed FBS, 15.4 µM	–	4.92	7.09
HPLM + 10% dialyzed FBS, 46.1 µM	–	5.05	7.14
RPMI 5 mM glucose + 10% FBS, 0.000781 µM	116	112	101
RPMI 5 mM glucose + 10% FBS, 0.00234 µM	119	117	95.2
RPMI 5 mM glucose + 10% FBS, 0.00702 µM	133	114	106
RPMI 5 mM glucose + 10% FBS, 0.0211 µM	127	115	107
RPMI 5 mM glucose + 10% FBS, 0.0632 µM	132	123	111
RPMI 5 mM glucose + 10% FBS, 0.19 µM	126	126	32.4
RPMI 5 mM glucose + 10% FBS, 0.569 µM	108	114	24
RPMI 5 mM glucose + 10% FBS, 1.71 µM	22.7	7.71	6.74
RPMI 5 mM glucose + 10% FBS, 5.12 µM	16.6	6.13	8
RPMI 5 mM glucose + 10% FBS, 15.4 µM	14.1	5.76	8.3
RPMI 5 mM glucose + 10% FBS, 46.1 µM	7.62	5.28	7.07
RPMI 5 mM glucose + 10% dialyzed FBS, 0.000781 µM	124	102	111
RPMI 5 mM glucose + 10% dialyzed FBS, 0.00234 µM	118	112	95.2
RPMI 5 mM glucose + 10% dialyzed FBS, 0.00702 µM	124	111	104
RPMI 5 mM glucose + 10% dialyzed FBS, 0.0211 µM	126	112	103
RPMI 5 mM glucose + 10% dialyzed FBS, 0.0632 µM	138	118	105
RPMI 5 mM glucose + 10% dialyzed FBS, 0.19 µM	125	105	38.2
RPMI 5 mM glucose + 10% dialyzed FBS, 0.569 µM	126	84.9	42.9
RPMI 5 mM glucose + 10% dialyzed FBS, 1.71 µM	31	4.96	7.36
RPMI 5 mM glucose + 10% dialyzed FBS, 5.12 µM	27.8	5.14	8.19
RPMI 5 mM glucose + 10% dialyzed FBS, 15.4 µM	24	4.91	8.02
RPMI 5 mM glucose + 10% dialyzed FBS, 46.1 µM	9.63	4.74	7.53

C[C@]12CC[C@H]3[C@@H](CCC/4=C/C(=O)CC[C@]34C)[C@@H]1CC[C@@H]2OC(=O)CCC5CCCC5
AUC of viability dose-response curve
Conditions	NOMO1 [2]	P12-Ichikawa [3]	SEM cells [1]
HPLM + 10% dialyzed FBS	461	448	452
RPMI 5 mM glucose + 10% FBS	471	459	463
RPMI 5 mM glucose + 10% dialyzed FBS	464	466	462

cell viability [%]
Conditions	NOMO1 [5]	P12-Ichikawa [6]	SEM cells [4]
HPLM + 10% dialyzed FBS, 0.000781 µM	90.8	93.1	90
HPLM + 10% dialyzed FBS, 0.00234 µM	100	100	92.3
HPLM + 10% dialyzed FBS, 0.00702 µM	103	104	99.1
HPLM + 10% dialyzed FBS, 0.0211 µM	113	113	102
HPLM + 10% dialyzed FBS, 0.0632 µM	96.1	98.8	104
HPLM + 10% dialyzed FBS, 0.19 µM	113	101	99.9
HPLM + 10% dialyzed FBS, 0.569 µM	118	106	95.6
HPLM + 10% dialyzed FBS, 1.71 µM	104	110	104
HPLM + 10% dialyzed FBS, 5.12 µM	111	104	101
HPLM + 10% dialyzed FBS, 15.4 µM	114	111	97.1
HPLM + 10% dialyzed FBS, 46.1 µM	110	114	111
RPMI 5 mM glucose + 10% FBS, 0.000781 µM	86.5	83.1	99.7
RPMI 5 mM glucose + 10% FBS, 0.00234 µM	107	84.3	86.2
RPMI 5 mM glucose + 10% FBS, 0.00702 µM	119	101	109
RPMI 5 mM glucose + 10% FBS, 0.0211 µM	109	107	105
RPMI 5 mM glucose + 10% FBS, 0.0632 µM	101	115	122
RPMI 5 mM glucose + 10% FBS, 0.19 µM	108	104	115
RPMI 5 mM glucose + 10% FBS, 0.569 µM	114	107	131
RPMI 5 mM glucose + 10% FBS, 1.71 µM	113	108	101
RPMI 5 mM glucose + 10% FBS, 5.12 µM	114	110	124
RPMI 5 mM glucose + 10% FBS, 15.4 µM	105	101	98.8
RPMI 5 mM glucose + 10% FBS, 46.1 µM	109	99.9	94.6
RPMI 5 mM glucose + 10% dialyzed FBS, 0.000781 µM	94.6	90.8	99.5
RPMI 5 mM glucose + 10% dialyzed FBS, 0.00234 µM	105	93.5	105
RPMI 5 mM glucose + 10% dialyzed FBS, 0.00702 µM	116	99.8	101
RPMI 5 mM glucose + 10% dialyzed FBS, 0.0211 µM	110	102	113
RPMI 5 mM glucose + 10% dialyzed FBS, 0.0632 µM	111	100	104
RPMI 5 mM glucose + 10% dialyzed FBS, 0.19 µM	116	104	104
RPMI 5 mM glucose + 10% dialyzed FBS, 0.569 µM	130	104	108
RPMI 5 mM glucose + 10% dialyzed FBS, 1.71 µM	107	98.9	121
RPMI 5 mM glucose + 10% dialyzed FBS, 5.12 µM	116	104	124
RPMI 5 mM glucose + 10% dialyzed FBS, 15.4 µM	111	110	90.6
RPMI 5 mM glucose + 10% dialyzed FBS, 46.1 µM	109	96.7	109
